Reference: US11560455B2, “Method for rapid gelation of silk fibroin solution under physiological conditions” (SOOCHOW UNIVERSITY, priority 2017, dated 2023)

System: Human umbilical vein endothelial cells (HUVECs)
Assay: Cell viability by CCK-8 assay
Type: cell-based
Conditions: 24 h, NapFF 10.0-200.0 μM, silk fibroin 0.1-2.0%, FIG. 9
Protocol: The cell viability was detected by CCK-8 assay. Human umbilical vein endothelial cells (HUVECs) were dispersed in a 96-well plate (at a cell concentration of 4000 cells/well) and cultured for 24 h in a 5% CO2 atmosphere at 37° C. The previous medium was replaced with a medium containing different concentrations of NapFF (10.0 μM, 20.0 μM, 50.0 μM, 100.0 μM, and 200.0 μM) and silk fibroin solutions (0.1%, 0.2%, 0.5%, 1.0%, and 2.0%), which was in turn replaced with a CCK-8 solution after 24 h. Finally, the optical density value (OD value) of the solution at 450 nm was measured on a microplate reader. The cell viability is expressed as percentage of the number of control (untreated) cells. The cell viability of the control group was set to 100% by default, and all experiments were performed in 5 replications.

## O=C(Cc1ccc2ccccc2c1)N[C@@H](Cc1ccccc1)C(=O)N[C@@H](Cc1ccccc1)C(=O)O [NapFF, 2-naphthaleneacetic acid-phenylalanine-phenylalanine]
  Cytotoxicity (cell viability, CCK-8): good biocompatibility
